Like-named read-outs stand apart in the source and are kept apart here.
Key:
Pre-REP TIL [1] = format: cell-based
Procedure: Phase 1: Small Scale Evaluation of Various Antibiotics in shipping medium and CM1 were conducted in 2 separate rounds using 2 different tumors as shown in Tables 53 and 54. The cultures were terminated after the Pre-REP. All the overnight incubations in HTS included 2.5 μg/mL Amphotericin B (or 10 μg/mL for the “high AmpB concentration” condition) and 50 μg/mL gentamicin
All the test and control conditions were tested in quadruplicates. Total Viable Cells and % Viability was recorded on Day 11 of Pre-REP.

S. aureus [2] = test: Antibiotics on growth of bacteria in culture media (HTS then CM1); format: cell-based; conditions: S. aureus (strain 1), HTS 24 hours at 2-8° C., then CM1 11 days, Gentamicin 50 μg/mL, Vancomycin 100 μg/mL
Procedure: In these experiments, the following antibiotics were added to Gram+bacteria S. aureus and E. faecalis in hypothermosol (HTS) at three different concentrations of bacteria: • a. Gentamicin (50 μg/mL) • b. […] Vancomycin (100 μg/mL)

E. faecalis [3] = test: as above; format: cell-based; conditions: HTS 24 hours at 2-8° C., then CM1 11 days, Gentamicin 50 μg/mL, Vancomycin 100 μg/mL
Procedure: Additional experiments were performed to test the ability of vancomycin to prevent growth of vancomycin sensitive bacteria in culture medium. In these experiments, the following antibiotics were added to Gram+bacteria S. aureus and E. faecalis in hypothermosol (HTS) at three different concentrations of bacteria: • a. Gentamicin (50 μg/mL) • b. Gentamicin (50 μg/mL)+Vancomycin (100 μg/mL) • c. Vancomycin (100 μg/mL)
The mixtures were incubated at 24 hours at 2-8° C. and then 1 mL of each of the samples were added to 20 mL of CM1 medium in the same concentrations of antibiotics above. The mixtures were incubated for 11 days and bacterial growth was visually assessed.

E. faecalis [4] = test: Antibiotics on bacterial growth of inoculated tissue fragments (HTS, wash, CM1); format: cell-based; conditions: for bacterial growth, visually assessed: inoculated tissue fragments, washed 3×, 11 days
Procedure: Gentamicin (50 μg/mL) • b. […] Vancomycin (100 μg/mL)

S. aureus [5] = conditions: for bacterial growth, visually assessed: S. aureus (strain 1), inoculated tissue fragments, washed 3×, 11 days
Procedure: Additional experiments were performed to test the ability of vancomycin to prevent growth of vancomycin sensitive bacteria in culture medium. In these experiments, tissue fragments were inoculated in HTS with three different loads of S. aureus and E. faecalis bacteria and the following antibiotics: • a.
The 6 HTS inoculates (iHTS) shown were incubated at 24 hours at 2-8° C. and washed 3× with tumor wash buffer with the same concentrations of antibiotics above. The tumor samples were incubated for 11 days and bacterial growth was visually assessed.

Pre-REP TIL [6] = test: Phase II full scale Pre-REP: extended phenotype of Day 11 samples; conditions: 100 μg/mL in tumor shipping medium and CM1 Pre-REP media
Procedure: The received tumor was separated into 2 equal portions and stored overnight similarly to the overnight incubation in phase I of testing. The chosen antibiotic condition was tested against Gentamicin Sulfate control at full scale Pre-REP according to the Day 0 Gen 2 Batch Record. TVC, viability, identity, function, and extended phenotyping data were obtained.
Both antibiotics were tested in shipping medium and CM1 at a concentration of 100 μg/mL.

Compound	cytotoxicity / impact on Pre-REP TIL cell growth (in words) (Pre-REP TIL [1]; Day 11 of Pre-REP, quadruplicates, with 50 μg/mL gentamicin)	cytotoxicity / impact on Pre-REP TIL cell growth (in words) (Pre-REP TIL [1])	bacterial growth, visually assessed (S. aureus [2])	bacterial growth, visually assessed (S. aureus [2]; listed as Vanco)	bacterial growth, visually assessed (E. faecalis [3])	bacterial growth, visually assessed (E. faecalis [3]; listed as Vanco)	bacterial growth, visually assessed (E. faecalis [4]; Bacterial Load High)	bacterial growth, visually assessed (E. faecalis [4]; Bacterial Load Low)	bacterial growth, visually assessed (E. faecalis [4]; Bacterial Load Med)	bacterial growth (summary in words) (E. faecalis [4]; all the bacterial loads tested)	bacterial growth, visually assessed (S. aureus [5]; Bacterial Load High)	bacterial growth, visually assessed (S. aureus [5]; Bacterial Load Low)	bacterial growth, visually assessed (S. aureus [5]; Bacterial Load Med)	bacterial growth (summary in words) (S. aureus [5]; S. aureus, all the bacterial loads tested)	effect on the Pre-REP cell product (TVC, Viability, Identity, Function, Extended Phenotyping; in words) (Pre-REP TIL [6])
C[C@@H]1[C@H](O)[C@@H](C)/C=C/C=C/C=C/C=C/C=C/C=C/C=C/[C@H](O[C@@H]2O[C@H](C)[C@@H](O)[C@H](N)[C@@H]2O)C[C@@H]2O[C@](O)(C[C@@H](O)C[C@@H](O)[C@H](O)CC[C@@H](O)C[C@@H](O)CC(=O)O[C@H]1C)C[C@H](O)[C@H]2C(=O)O [amphotericin B]	did not appear cytotoxic														
CN[C@H](CC(C)C)C(=O)N[C@H]1C(=O)N[C@@H](CC(N)=O)C(=O)N[C@H]2C(=O)N[C@H]3C(=O)N[C@H](C(=O)N[C@H](C(=O)O)c4cc(O)cc(O)c4-c4cc3ccc4O)[C@H](O)c3ccc(c(Cl)c3)Oc3cc2cc(c3O[C@@H]2O[C@H](CO)[C@@H](O)[C@H](O)[C@H]2O[C@H]2C[C@](C)(N)[C@H](O)[C@H](C)O2)Oc2ccc(cc2Cl)[C@H]1O [vancomycin]		least cytotoxicity	inhibited grown	No Growth	inhibited grown	No Growth	No Growth	No Growth	No Growth	no observed growth	No Growth	No Growth	No Growth	no observed growth	no deleterious effect
